“Also recorded” adds a separate entry of the source.
Tests used:
[1] = test system: TBI mice (controlled cortical impact); assay: Beam walk test (fine motor coordination) after CCI; assay type: in vivo, mouse; conditions: for foot faults (beam walk): TBI mice, 50 steps
Description: To test the effect of β-secretase on TBI outcome, the B-APP cleaving enzyme-1 (BACE1) Bace1^−/− knockout mouse was used. Bace1 is the initial rate-limiting enzyme for Aβ production. Bace1^−/− mice are unable to produce any species of Aβ (Cai et al., Nat. Neurosci. 4:233-4 (2001)), and the absence of Aβx-40 in brain homogenates by ELISA (0.1±0.09 fmol per mg protein) was confirmed. CCI surgery was performed, and the beam walk test was used to detect fine motor coordination aberrations (Fox et al., J. Neurotrauma 15:599-614 (1998)). This test examines the number of errors (foot faults) made by the right hind limb over 50 steps. The mice were trained on the test before injury, and the test was repeated on 1 day, 3 days, 7 days, 14 days, and 21 days after TBI. Injured Bace1^−/− mice made fewer foot faults at multiple time points, with a 38% final improvement over injured Bace1^+/+ mice (FIG. 4, P<0.001).
(§1) The other secretase involved in amyloidogenic processing of APP is γ-secretase, and the pharmacological inhibitor N-[N-(3,5-difluorophenacetyl-L-alanyl)]-S-phenlyglycine t-butyl ester (DAPT) was used to block enzyme activity. […] Each mouse received the initial dose 15 minutes after CCI or sham surgery and then twice daily for 21 days. This dosing regime was implemented because Aβ is known to drop after γ-secretase inhibition before recovering over several hours (Abramowski et al., J. Pharmacol. Exp. Ther. 327:411-24 (2008), El Mouedden et al., Curr. Pharm. Des. 12:671-6 (2006)). To confirm γ-secretase inhibition in DAPT-treated mice, Aβ concentrations were measured. Three hours after final drug administration, Aβ levels were reduced by 25% (13.76±0.8 fmol per mg protein (vehicle-treated TBI mice) versus 10.42±0.4 fmol per mg protein (DAPT-treated TBI mice); P<0.01), and APP carboxy-terminal fragments accumulated.
(§2) On the day after CCI, the first beam walk test was conducted. Vehicle-treated TBI mice made 50±0 foot faults and improved to 43±2 foot faults on the final day of testing (FIG. 9). […] Spatial learning with the Morris water maze was also tested.

[2] = test system: TBI mice (controlled cortical impact); assay: MRI of brain lesion 21 days after CCI; assay type: in vivo, mouse
Excerpt: Five mice in each TBI group were randomly chosen for T2-weighted magnetic resonance imaging (MRI) analysis at 21 days after trauma. […] This was confirmed by fixed brain tissue sections (FIG. 7). […] Total lesion volume was reduced by 30% in […] (FIG. 9, P<0.05).
(§3) The representative MRI images show a vehicle-treated TBI mouse with the brain lesion visible through 4 mm (8 mm×0.5 mm longitudinal sections) of tissue, whereas DAPT treatment results in damage through only 1.5 mm (3 mm×0.5 mm sections) (FIG. 13). […] The damage to the hippocampus was not as extensive as that seen in the Bacel study; however, cell loss in the CA1 region of mice after TBI was clearly visible (FIG. 16). This allowed quantification of cell loss in the hippocampus (FIG. 17). Neurons were stained with NeuN, a neuronal marker, and an unbiased stereology count was performed. TBI caused a 34% decrease in NeuN-positive cells in the CA1 region of the ipsilateral hippocampus (P<0.05). DAPT treatment attenuated this cell loss, resulting in a 10% reduction in CA1 neurons (P<0.05 versus vehicle-treated TBI mice).

[3] = test system: γ-secretase; assay: Aβ concentrations in DAPT-treated TBI mice, to confirm γ-secretase inhibition; assay type: in vivo, mouse; conditions: three hours after final drug administration
Description: as §1

[4] = test system: TBI mice (controlled cortical impact); assay: Histological assessment of lesion volume and NeuN stereology count of CA1 neurons; assay type: in vivo, mouse
Excerpt: as §3

[5] = test system: mouse model of stroke; conditions: after ischemia and reperfusion; Arumugam et al. 2006; cited from earlier work
[6] = test system: TBI mice (controlled cortical impact); assay: Morris water maze (spatial learning) after CCI; assay type: in vivo, mouse
Description: A Morris water maze paradigm was used to assess spatial learning by training mice to locate a hidden, submerged platform using extramaze visual information (Fox et al., J. Neurotrauma 15:599-614 (1998)). The test was conducted 15-18 days after injury, and each mouse was tested for four trials per day for four consecutive days. Uninjured Bace1^+/+ mice were used as a behavioral control. Injured Bace1^+/+ mice had significant learning impairments on all 4 days of testing compared to uninjured Bace1^+/+ mice (P<0.01). Injured Bace1^−/− mice, however, improved rapidly, and on the final day of testing were indistinguishable from uninjured mice (FIG. 5, P<0.01). All groups had similar escape latencies when presented with a visual platform probe test (uninjured Bace1^+/+, 23.4±6.3 seconds; injured Bace1^+/+, 21.1±7.8 seconds; injured Bace1^−/−, 21.2±4.9 seconds).
as §1, §2

C[C@H](NC(=O)Cc1cc(F)cc(F)c1)C(=O)N[C@H](C(=O)OC(C)(C)C)c1ccccc1 [DAPT, N-[N-(3,5-Difluorophenacetyl)-L-alanyl]-S-phenylglycine t-butyl ester]
improvement in foot faults over vehicle-treated TBI mice ([1]; 21 days after injury): 42% | foot faults (beam walk) ([1]; 21 days after injury): 25±5 foot faults | foot faults (beam walk) ([1]; day after surgery): 48±1 foot faults | recovery of fine motor coordination on beamwalk test ([1]; after 21 days, in words): Recovery is improved | lesion size by MRI ([2]; injured mice, in words): substantially reduced lesion size | depth of tissue through which damage is visible on MRI ([2]; representative images, 0.5 mm sections): 1.5 mm | Aβ levels reduced ([3]; DAPT 30 mg per kg orally twice daily for 21 days, versus vehicle-treated TBI mice): 25% | APP carboxy-terminal fragments ([3]; DAPT-treated TBI mice): accumulated | Aβ concentration ([3]; DAPT-treated TBI mice): 10.42±0.4 fmol per mg protein | tissue sparing (histology) ([4]; H&E sections, in words): spared large areas of cortex and subcortical white matter tracts; also recorded: Subcortical white matter tracts are spared | reduction in CA1 neurons (NeuN-positive cells, ipsilateral hippocampus) ([4]; TBI mice, stereology count): 10% | neuronal populations in ipsilateral CA1 versus contralateral ([4]; stereology cell counts, in words): This reduction is prevented | lesion volume ([4]; versus vehicle control, in words): reduced | lesion volume decreased ([4]; versus vehicle-treated TBI mice): > 70% | infarct area [5]: reduced infarct area | neurological function [5]: improved neurological function | escape latency, visible platform probe ([6]; TBI mice): 17.5 ± 3.7 s | spatial learning in Morris water maze ([6]; TBI mice, 4 days of test, in words): indistinguishable from sham-injured mice; also recorded: prevents these deficits | escape latency, visible platform probe ([6]; sham-operated mice): 13.6 ± 3.4 s

Source: patent publication US20100233156A1, “Treating Central Nervous System Injury with Beta and Gamma Secretase Inhibitors” (GEORGETOWN UNIVERSITY, priority 2009, published 2010)
